Results reported in PMC3623729 (Journal of medicinal chemistry, 2013).
Entries after “also recorded” stand apart in the source; their conditions may differ. Structures can show the parent of a compound that is named as a salt.

Biological target: T1, human RXRα (Homo sapiens, UniProt P19793)
T1 sequence (P19793 1-462): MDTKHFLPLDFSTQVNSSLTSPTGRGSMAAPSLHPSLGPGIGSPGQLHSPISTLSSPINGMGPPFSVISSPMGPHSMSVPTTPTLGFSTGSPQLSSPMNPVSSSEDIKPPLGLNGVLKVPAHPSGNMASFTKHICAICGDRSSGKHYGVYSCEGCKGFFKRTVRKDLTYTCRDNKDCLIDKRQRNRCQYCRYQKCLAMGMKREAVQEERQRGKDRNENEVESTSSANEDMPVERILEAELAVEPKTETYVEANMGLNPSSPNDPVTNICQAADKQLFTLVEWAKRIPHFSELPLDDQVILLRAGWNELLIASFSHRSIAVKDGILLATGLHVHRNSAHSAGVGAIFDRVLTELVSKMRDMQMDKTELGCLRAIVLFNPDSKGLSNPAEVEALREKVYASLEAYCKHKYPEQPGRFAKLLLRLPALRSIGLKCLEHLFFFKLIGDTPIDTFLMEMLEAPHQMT
Test: RXRE-luciferase reporter gene assay
Type: cell-based
Conditions: for Max IR: maximum induction ratio observed: compounds tested at variable concentrations

Row | SMILES | RXR activity in words (active / inactive) | Max IR: maximum induction ratio observed
1 | CN(C)CCCn1c2c(c3ccc(Br)cc3c1=O)C(=O)c1ccccc1-2 [Compound 93, 3-Bromo-6-(3-(dimethylamino)propyl)-5,11-dioxo-6,11-dihydro-5H-indeno[1,2-c]isoquinoline] | active | 
2 | COC(=O)/C=C/c1ccc2c3c(n(CCCN)c(=O)c2c1)-c1ccccc1C3=O.Cl [Compound 87, (E)-Methyl 3-(6-(3-Aminopropyl)-5,11-dioxo-6,11-dihydro-5H-indeno[1,2-c]isoquinolin-3-yl)acrylate Hydrochloride] | lack of activity | NA (NA: Max IR not determined because IR < 2.)
3 | O=C1c2ccccc2-c2c1c1ccccc1c(=O)n2CCCn1ccnc1 [Compound 102, 5,6-Dihydro-6-(3-imidazolyl-1-propyl)-5,11-dioxo-11H-indeno[1,2-c]isoquinoline] | inactive | NA (NA: Max IR not determined because IR < 2.)
4 | O=C(O)CCn1c2c(c3ccc(Br)cc3c1=O)C(=O)c1ccccc1-2 [Compound 97, Lithium 6(2-Carboxyethyl)-3-bromo-5,6-dihydro-5,11-dioxo-11H-indeno[1,2-c]isoquinoline] | inactive | NA (NA: Max IR not determined because IR < 2.)
5 | N#Cc1ccc2c3c(n(CCCn4ccnc4)c(=O)c2c1)-c1ccccc1C3=O [Compound 127] | inactive; also recorded: lack of activity | 
6 | NC(=O)CCn1c2c(c3ccccc3c1=O)C(=O)c1ccccc1-2 [Compound 107, 3-(5,11-Dioxo-5H-indeno[1,2-c]isoquinolin-6(11H)-yl)propanamide] | inactive | NA (NA: Max IR not determined because IR < 2.)
7 | COC(=O)c1ccc2c3c(n(CCCn4ccnc4)c(=O)c2c1)-c1ccccc1C3=O [Compound 68, Methyl 6-(3-(1H-Imidazol-1-yl)propyl)-5,11-dioxo-6,11-dihydro-5H-indeno[1,2-c]isoquinoline-3-carboxylate Hydrochloride] | inactive; also recorded: lack of activity | 
8 | CN(C)CCCn1c2c(c3ccccc3c1=O)C(=O)c1ccccc1-2 [Compound 103, 5,6-Dihydro-6-(3-(dimethylamino)-1-propyl)-5,11-dioxo-11Hindeno[1,2-c]isoquinoline] | active; also recorded: high activity | 
9 | Cn1c2c(c3ccc(CC(=O)O)cc3c1=O)C(=O)c1ccccc1-2 [Compound 4, 2-(6-Methyl-5,11-dioxo-6,11-dihydro-5H-indeno[1,2-c]isoquinolin-3-yl)acetic Acid] | inactive | 
10 | O=C1c2ccccc2-c2c1c1ccc([N+](=O)[O-])cc1c(=O)n2CCCO [Compound 145] | inactive | 
11 | O=C1c2ccccc2-c2c1c1ccc(Br)cc1c(=O)n2CCCN1CCOCC1 [Compound 92, 3-Bromo-6-(3-morpholinopropyl)-5,11-dioxo-6,11-dihydro-5H-indeno[1,2-c]isoquinoline] | inactive | NA (NA: Max IR not determined because IR < 2.)
12 | Cn1c2c(c3ccc(/C=C/C#N)cc3c1=O)C(=O)c1ccccc1-2 [Compound 11, (E)-3-(6-Methyl-5,11-dioxo-6,11-dihydro-5H-indeno[1,2-c]isoquinolin-3-yl)acrylonitrile] | inactive | 
13 | CN(C)CCCn1c2c(c3ccc([N+](=O)[O-])cc3c1=O)C(=O)c1ccccc1-2 [Compound 113, 6-(3-(Dimethylamino)propyl)-3-nitro-5H-indeno[1,2-c]isoquinoline-5,11(6H)-dione] | detrimental for activity | NA (NA: Max IR not determined because IR < 2.)
14 | Cn1c2c(c3ccc(C(N)=O)cc3c1=O)C(=O)c1ccccc1-2 [Compound 31, 6-Methyl-5,11-dioxo-6,11-dihydro-5H-indeno[1,2-c]isoquinoline-3-carboxamide] | inactive | 
15 | CC(C)(C)OC(=O)NCCCn1c2c(c3ccc(N)cc3c1=O)C(=O)c1ccccc1-2 [Compound 141] | inactivated | 
16 | O=C1c2ccccc2-c2c1c1ccc([N+](=O)[O-])cc1c(=O)n2CCCCO [Compound 120, 6-(4-Hydroxybutyl)-3-nitro-5H-indeno[1,2-c]isoquinoline-5,11(6H)-dione] | inactive | 
17 | O=C1c2ccccc2-c2c1c1ccc([N+](=O)[O-])cc1c(=O)n2CCCCl [Compound 133] | inactive | 
18 | COC(=O)c1ccc2c3c(n(CCCN(C)C)c(=O)c2c1)-c1ccccc1C3=O.Cl [Compound 70, Methyl 6-(3-(Dimethylamino)propyl)-5,11-dioxo-6,11-dihydro-5H-indeno[1,2-c]isoquinoline-3-carboxylate Hydrochloride] | active | 

Row | SMILES | RXR activity in words (active / inactive) | Max IR: maximum induction ratio observed
19 | C[N+](C)(C)CCCn1c2c(c3ccccc3c1=O)C(=O)c1ccccc1-2.[I-] [Compound 104, 6-(3-(Trimethylammonium)propyl)-5H-indeno[1,2-c]isoquinoline-5,11(6H)-dione Iodide] | inactive | NA (NA: Max IR not determined because IR < 2.)
20 | Cc1ccc2c3c(n(C)c(=O)c2c1)-c1ccccc1C3=O [Compound 36, 3,6-Dimethyl-5H-indeno[1,2-c]isoquinoline-5,11(6H)-dione] | not active | 
21 | [N-]=[N+]=NCCCn1c2c(c3ccc([N+](=O)[O-])cc3c1=O)C(=O)c1ccccc1-2 [Compound 134] | inactive | 
22 | CN(C)CCCn1c2c(c3ccc(C#N)cc3c1=O)C(=O)c1ccccc1-2 [Compound 129] | active | 
23 | O=C1c2ccccc2-c2c1c1ccc(Br)cc1c(=O)n2CCCO [Compound 94, 3-Bromo-5,6-dihydro-6(3-hydroxypropyl)-5,11-dioxo-indeno[1,2-c]isoquinoline] | inactive | 
24 | CN(C)c1ccc2c3c(n(CCCN)c(=O)c2c1)-c1ccccc1C3=O [Compound 149] | inactive | NA (NA: Max IR not determined because IR < 2.)
25 | CC(=O)NCCCn1c2c(c3ccc([N+](=O)[O-])cc3c1=O)C(=O)c1ccccc1-2 [Compound 143] | detrimental for activity | 
26 | Cn1c2c(c3ccc(C(=O)O)cc3c1=O)C(=O)c1ccccc1-2 [Compound 30, 6-Methyl-5,11-dioxo-6,11-dihydro-5H-indeno[1,2-c]isoquinoline-3-carboxylic Acid] | inactive | 
27 | COCCCn1c2c(c3ccccc3c1=O)C(=O)c1ccccc1-2 [Compound 108, 6-(3-Methoxypropyl)-5H-indeno[1,2-c]isoquinoline-5,11(6H)-dione] | inactive | 
28 | COC(=O)CC(=O)Nc1ccc2c3c(n(CCCN)c(=O)c2c1)-c1ccccc1C3=O [Compound 52] | active | 
29 | N#Cc1ccc2c3c(n(CCCN4CCOCC4)c(=O)c2c1)-c1ccccc1C3=O [Compound 128] | inactive; also recorded: lack of activity | 
30 | Cn1c2c(c3ccc(CCCC(=O)O)cc3c1=O)C(=O)c1ccccc1-2 [Compound 19, 5-(6-Methyl-5,11-dioxo-6,11-dihydro-5H-indeno[1,2-c]isoquinolin-3-yl)butanoic Acid] | inactive | 
31 | CNCCCn1c2c(c3ccc(Br)cc3c1=O)C(=O)c1ccccc1-2 [Compound 95, 3-Bromo-5,6-dihydro-6-(3-N-methylaminopropyl)-5,11-dioxo-indeno[1,2-c]isoquinoline] | active | 
32 | COC(=O)/C=C/c1ccc2c3c(n(C)c(=O)c2c1)-c1ccccc1C3=O [Compound 12, (E)-Methyl 3-(6-Methyl-5,11-dioxo-6,11-dihydro-5H-indeno[1,2-c]isoquinolin-3-yl)acrylate] | inactive | 
33 | CC(=O)NCCCn1c2c(c3ccc(N)cc3c1=O)C(=O)c1ccccc1-2 [Compound 144] | significantly reduced the IR | 
34 | COC(=O)c1ccc2c3c(n(CCCN)c(=O)c2c1)-c1ccccc1C3=O.Cl [Compound 73, Methyl 6-(3-Aminopropyl)-5,11-dioxo-6,11-dihydro-5H-indeno[1,2-c]isoquinoline-3-carboxylate Hydrochloride] |  | NA (NA: Max IR not determined because IR < 2.)
35 | CCCCn1c2c(c3ccccc3c1=O)C(=O)c1ccccc1-2 [Compound 109, 6-Butyl-5H-indeno[1,2-c]isoquinoline-5,11(6H)-dione] | inactive | 
36 | O=C1c2ccccc2-c2c1c1ccccc1c(=O)n2CCCO [Compound 151] | inactive | NA (NA: Max IR not determined because IR < 2.)
